Laboratory results taken from ChEMBL document CHEMBL3124779, “Discovery of ABT-267, a pan-genotypic inhibitor of HCV NS5A” (J Med Chem, 2014).
Values after ≈ are worked out from the molar mass of the structure shown.

What was measured:
[1] = Metabolic stability in human liver microsomes assessed as compound remaining after 30 mins; format: ADME; conditions: read-out: Stability
Hepatitis C virus [2] = assay: Antiviral activity against HCV1b Con1 infected in human HuH7 cells assessed as inhibition of viral replication after 4 days by luciferase reporter gene assay; format: functional, organism-based, Hepacivirus hominis; conditions: isolate Con1, Huh-7, 96 h
[3] = Tmax in rat at 3 mg/kg, po; format: ADME, organism-based; design: dose 3 mg/kg, route oral; conditions: in vivo
Hepatitis C virus [4] = assay: Ratio of EC50 for HCV1a H77 infected in human HuH7 cells in presence of 40% human plasma to EC50 for HCV1a H77 infected in human HuH7 cells in absence of 40% human plasma; format: functional, Hepacivirus hominis, genotype 1a H77, Huh-7
Hepatitis C virus [5] = assay: Ratio of EC50 for HCV1b Con1 infected in human HuH7 cells in presence of 40% human plasma to EC50 for HCV1b Con1 infected in human HuH7 cells in absence of 40% human plasma; format: functional, Hepacivirus hominis, isolate Con1, Huh-7
[6] = Cmax in rat at 3 mg/kg, po; format: ADME, organism-based; design: dose 3 mg/kg, route oral; conditions: in vivo
[7] = Metabolic stability in rat liver microsomes assessed as compound remaining after 30 mins; format: ADME; conditions: read-out: Stability
[8] = Oral bioavailability in rat at 3 mg/kg; format: ADME, organism-based; conditions: in vivo
Hepatitis C virus [9] = assay: Antiviral activity against HCV1a H77 infected in human HuH7 cells assessed as inhibition of viral replication after 4 days by luciferase reporter gene assay in presence of 40% human plasma; format: functional, organism-based, Hepacivirus hominis; conditions: genotype 1a H77, Huh-7, Plasma, 96 h
[10] = Lipophilicity, log D of the compound at pH 7.4 by HPLC analysis; format: physicochemical; conditions: buffer
Hepatitis C virus [11] = assay: Antiviral activity against HCV1a H77 infected in human HuH7 cells assessed as inhibition of viral replication after 4 days by luciferase reporter gene assay; format: functional, organism-based, Hepacivirus hominis; conditions: genotype 1a H77, Huh-7, 96 h
Hepatitis C virus [12] = assay: Antiviral activity against HCV1b Con1 infected in human HuH7 cells assessed as inhibition of viral replication after 4 days by luciferase reporter gene assay in presence of 40% human plasma; format: functional, organism-based, Hepacivirus hominis; conditions: isolate Con1, Huh-7, Plasma, 96 h
[13] = AUC in rat at 3 mg/kg, po; format: ADME, organism-based; design: dose 3 mg/kg, route oral; conditions: plasma
[14] = Kinetic solubility of the compound in 10 mM of phosphate buffer at pH 7.2 by CLND method; format: physicochemical; conditions: read-out: Kinetic_solubility
[15] = Clearance in rat at 3 mg/kg, iv; format: ADME, organism-based; design: dose 3 mg/kg, route intravenous; conditions: in vivo
[16] = Half life in rat at 3 mg/kg, po; format: ADME, organism-based; design: dose 3 mg/kg, route oral; conditions: in vivo
[17] = Half life in rat at 3 mg/kg, iv; format: ADME, organism-based; design: dose 3 mg/kg, route intravenous; conditions: in vivo
[18] = Volume of distribution at steady state in rat at 3 mg/kg, iv; format: ADME, organism-based; design: dose 3 mg/kg, route intravenous; conditions: in vivo, read-out: Vdss

COC(=O)N[C@H](C(=O)N1CCC[C@H]1C(=O)Nc1ccc([C@@H]2CC[C@@H](c3ccc(NC(=O)[C@@H]4CCCN4C(=O)[C@@H](NC(=O)OC)C(C)(C)C)cc3)N2c2ccc(F)cc2)cc1)C(C)(C)C
remaining at 0.5 h [1]: 52%
EC50 (Hepatitis C virus [2]): 0.006 nM
Tmax [3]: 3 h
Ratio EC50 (Hepatitis C virus [4]): 59
Ratio EC50 (Hepatitis C virus [5]): 88
Cmax [6]: 110 ng/mL
remaining at 0.5 h [7]: 56%
bioavailability [8]: 23%
EC50 (Hepatitis C virus [9]): 15.5 nM
logD [10]: 5.2
EC50 (Hepatitis C virus [11]): 0.263 nM
EC50 (Hepatitis C virus [12]): 0.528 nM
AUC [13]: 1850 ng·h/mL
solubility kinetic [14]: 4.4 µM (≈ 3.89 µg/mL)
clearance [15]: < 6.5 mL/min/kg

COC(=O)N[C@H](C(=O)N1CCC[C@H]1C(=O)Nc1ccc([C@H]2CC[C@H](c3ccc(NC(=O)[C@@H]4CCCN4C(=O)[C@@H](NC(=O)OC)[C@@H](C)OC)cc3)N2c2ccc(F)cc2)cc1)[C@@H](C)OC
remaining at 0.5 h [1]: 48%
EC50 (Hepatitis C virus [2]): 0.134 nM
Tmax [3]: 0.5 h
Ratio EC50 (Hepatitis C virus [4]): 2
Ratio EC50 (Hepatitis C virus [5]): 10
Cmax [6]: 120 ng/mL
remaining at 0.5 h [7]: 46%
bioavailability [8]: 15%
EC50 (Hepatitis C virus [9]): 1.95 nM
logD [10]: 3
half-life [16]: 0.9 h
EC50 (Hepatitis C virus [11]): 0.794 nM
EC50 (Hepatitis C virus [12]): 1.33 nM
AUC [13]: 170 ng·h/mL
solubility kinetic [14]: 7.7 µM (≈ 6.84 µg/mL)
half-life [17]: 0.4 h
clearance [15]: 45 mL/min/kg
Vd [18]: 0.9 L/kg

COC(=O)N[C@H](C(=O)N1CCC[C@H]1C(=O)Nc1ccc([C@H]2CC[C@H](c3ccc(NC(=O)[C@@H]4CCCN4C(=O)[C@@H](NC(=O)OC)C(C)C)cc3)N2c2ccc(C(C)(C)C)cc2)cc1)C(C)C
EC50 (Hepatitis C virus [2]): 0.0088 nM
Tmax [3]: 4.7 h
Ratio EC50 (Hepatitis C virus [4]): 7
Ratio EC50 (Hepatitis C virus [5]): 10
Cmax [6]: 20 ng/mL
remaining at 0.5 h [7]: 65%
bioavailability [8]: 3.1%
EC50 (Hepatitis C virus [9]): 0.986 nM
logD [10]: 5.2
half-life [16]: 8.6 h
EC50 (Hepatitis C virus [11]): 0.138 nM
EC50 (Hepatitis C virus [12]): 0.09 nM
AUC [13]: 220 ng·h/mL
solubility kinetic [14]: 1.8 µM (≈ 1.61 µg/mL)
half-life [17]: 5.5 h
clearance [15]: 7.17 mL/min/kg
Vd [18]: 2.2 L/kg

COC(=O)N[C@H](C(=O)N1CCC[C@H]1C(=O)Nc1ccc([C@@H]2CC[C@@H](c3ccc(NC(=O)[C@@H]4CCCN4C(=O)[C@@H](NC(=O)OC)C(C)(C)C)cc3)N2c2ccc(C(C)(C)C)cc2)cc1)C(C)(C)C
remaining at 0.5 h [1]: 78%
EC50 (Hepatitis C virus [2]): 0.0022 nM
Tmax [3]: 5.3 h
Cmax [6]: 90 ng/mL
remaining at 0.5 h [7]: 87%
bioavailability [8]: 7.2%
EC50 (Hepatitis C virus [9]): 1.06 nM
half-life [16]: 11 h
EC50 (Hepatitis C virus [11]): 0.021 nM
EC50 (Hepatitis C virus [12]): 0.117 nM
AUC [13]: 1250 ng·h/mL
solubility kinetic [14]: 1.2 µM (≈ 1.11 µg/mL)
half-life [17]: 8.2 h
clearance [15]: 2.83 mL/min/kg
Vd [18]: 2.3 L/kg

COC(=O)N[C@H](C(=O)N1CCC[C@H]1C(=O)Nc1ccc([C@H]2CC[C@H](c3ccc(NC(=O)[C@@H]4CCCN4C(=O)[C@@H](NC(=O)OC)C(C)(C)C)cc3)N2c2ccc(C(C)(C)C)cc2)cc1)C(C)(C)C
remaining at 0.5 h [1]: 80%
EC50 (Hepatitis C virus [2]): 0.0084 nM
Tmax [3]: 2.5 h
Cmax [6]: 90 ng/mL
remaining at 0.5 h [7]: 83%
bioavailability [8]: 7.2%
EC50 (Hepatitis C virus [9]): 4.31 nM
half-life [16]: 12.4 h
EC50 (Hepatitis C virus [11]): 0.123 nM
EC50 (Hepatitis C virus [12]): 0.344 nM
AUC [13]: 1390 ng·h/mL
solubility kinetic [14]: 2.2 µM (≈ 2.03 µg/mL)
half-life [17]: 10.2 h
clearance [15]: 2.83 mL/min/kg
Vd [18]: 1.7 L/kg

COC(=O)N[C@H](C(=O)N1CCC[C@H]1C(=O)Nc1ccc([C@@H]2CC[C@@H](c3ccc(NC(=O)[C@@H]4CCCN4C(=O)[C@@H](NC(=O)OC)C(C)C)cc3)N2c2ccc(F)cc2)cc1)C(C)C
remaining at 0.5 h [1]: 44%
EC50 (Hepatitis C virus [2]): 0.012 nM
Tmax [3]: 1 h
Ratio EC50 (Hepatitis C virus [4]): 9
Ratio EC50 (Hepatitis C virus [5]): 15
Cmax [6]: 190 ng/mL
remaining at 0.5 h [7]: 49%
bioavailability [8]: 22%
EC50 (Hepatitis C virus [9]): 3.68 nM
logD [10]: 4.6
half-life [16]: 3 h
EC50 (Hepatitis C virus [11]): 0.396 nM
EC50 (Hepatitis C virus [12]): 0.184 nM
AUC [13]: 750 ng·h/mL
solubility kinetic [14]: 4.1 µM (≈ 3.51 µg/mL)
half-life [17]: 2.6 h
clearance [15]: 15 mL/min/kg
Vd [18]: 2.4 L/kg
